pEC50: −log10 of the molar value.

This experiment has as its target Dual specificity tyrosine-phosphorylation-regulated kinase 1A (Homo sapiens, UniProt Q13627). The experiment in a line: Kinase Assay: The DYRK1A kinase assay was run using the Ser/Thr 18 peptide Z-lyte assay kit according to manufacturer's instructions (Life Technologies—a Division of Thermo-Fisher). This is a non-radioactive assay using fluorescence resonance energy transfer (FRET) between coumarin and fluorescein to detect kinase activity which is represented as a ratio of coumarin emission/fluorescein emission.Briefly, recombinant DYRK1A kinase, ATP and Ser/Thr peptide 18 were prepared in 1× Kinase buffer to final concentrations of 0.19 μg/mL, 30 μM, and 4 μM respectively. The mixture was allowed to incubate with the representative compounds for one hour at room temperature. All reactions were performed in duplicate. Unphosphorylated (“0% Control”) and phosphorylated (“100% control”) forms of Ser/Thr 18 served as control reactions. Additionally, an 11-point dose-response curve of Staurosporine (1 uM top) was run to serve as a positive compound control.
Usually pEC50 stands for the EC50 on a negative log10 scale, so that one unit is a factor of ten. In the case of `CN1CCCCN(C)c2nccc3[nH]c(nc23)-c2n[nH]c3ccc(cc23)-c2cncc(c2)C1`, the pEC50 is 8.70.

Consider `O=C1CCc2cccc(c2)-c2cncc(c2)NC(=O)c2n[nH]c3ccc(cc23)-c2cncc(c2)CN1`, for which the pEC50 is 8.05.

In the case of `c1cc2cc(c1)-c1cncc3[nH]c(nc13)-c1n[nH]c3ccc(cc13)-c1cncc(c1)CNC2`, the negative logarithm of the EC50 (pEC50) is 8.52.

With `O=C1CCc2cccc(c2)-c2cncc3[nH]c(nc23)-c2n[nH]c3ccc(cc23)-c2cncc(c2)N1`, the pEC50 is 8.00.

For the compound `O=C1COc2cccc(c2)-c2cncc3[nH]c(nc23)-c2n[nH]c3ccc(cc23)-c2cncc(c2)N1`, the pEC50 was 8.30.
